Read-outs that look alike come from different tables or passages of the source.
What was measured:
nine cancer cell lines = experiment: MTT cytotoxicity, over the nine cancer cell lines; conditions: for average fold more potent than cisplatin: average over cell lines
A498 cells = experiment: MTT cytotoxicity assay, A498; assay type: cell-based, human; conditions: A498, 72 h exposure, read-out: IC50 (median growth inhibitory concentration)
Protocol: (§1) Platinum(IV) complexes were dissolved in DMSO to stock solutions of 1 mg/mL just before the experiment, and a calculated amount of drug solution was added to the cell growth medium to a final solvent concentration of 0.5%, which had no discernible effect on cell killing. Cisplatin (CDDP) and oxaliplatin (OXP) were dissolved just before the experiment in a 0.9% NaCl solution.
(§2) Human prostate adenocarcinoma (PC3) cells were obtained from European Collection of Cell Cultures (ECACC, Salisbury, UK). Human ovarian cancer cell lines A2780 and its cisplatin resistant variant, A2780cisR, were kindly provided by Prof.
(§3) Cancer Res. 1988, 48, 589-601]. […] Triplicate cultures were established for each treatment.

HCT-15 cells = experiment: MTT cytotoxicity assay, HCT-15; assay type: cell-based, human; conditions: for IC50: HCT-15, 72 h exposure, MTT (Table 1), read-out: IC50 (median growth inhibitory concentration)
Protocol: (§4) Cisplatin (CDDP) and oxaliplatin (OXP) were dissolved just before the experiment in a 0.9% NaCl solution. […]
as §3
(§5) MTT assay. […] Triplicate cultures were established for each treatment.
(§6) The two dimers, 3a and 3b, as well as compounds 1a and 2a were screened against six human cancer cell lines representative of lung (H157), colon (HCT-15), cervical (A431), ovarian (2008) and pancreatic (PSN1) cancers, along with melanoma (A375). Cytotoxicity was evaluated by means of the MTT test after 72 h of treatment and the in vitro antitumor potential of newly synthesized derivatives was compared to that of the reference metallo-drugs CDDP and OXP.

[1] = tested on: Lewis lung carcinoma (LLC); experiment: In vivo efficacy study, Lewis lung carcinoma mouse model; set-up: species or system C57BL mice
Protocol: A preliminary in vivo efficacy study was carried out on a mouse model (see Table 3 below):
Lewis lung carcinoma (LLC) was implanted i.m. (2·10^6 cells inoculum) into the right hind leg of 8-week old inbred C57BL mice (24±3 g body weight). Chemotherapy was delayed until the tumor became visible (day 7).

A2780cisR cells = experiment: MTT cytotoxicity assay, A2780cisR (cisplatin resistant); assay type: cell-based, human; conditions: for IC50: 72 h exposure, MTT, read-out: IC50 (median growth inhibitory concentration)
Protocol: as §1, §2, §3

A375 cells = experiment: MTT cytotoxicity assay, A375; assay type: cell-based, human; conditions: A375, 72 h exposure, MTT (Table 1); read-out: IC50 (median growth inhibitory concentration)
Protocol: as §4, §3, §5, §6

PC3 cells = experiment: MTT cytotoxicity assay, PC3; assay type: cell-based, human; conditions: PC3, 72 h exposure, read-out: IC50 (median growth inhibitory concentration)
Protocol: (§7) Cisplatin (CDDP) and oxaliplatin (OXP) were dissolved just before the experiment in a 0.9% NaCl solution.
as §2
(§8) Triplicate cultures were established for each treatment.

MCF-7 cells [2] = experiment: MTT cytotoxicity assay, MCF-7; assay type: cell-based, human; conditions: for times more effective/potent than cisplatin: MCF-7; for IC50: MCF-7, 72 h exposure, MTT, read-out: IC50 (median growth inhibitory concentration)
Protocol: as §7, §2, §8

MCF-7 cells [3] = experiment: Nuclear DNA fragmentation ELISA, MCF-7; assay type: cell-based, human; conditions: MCF-7, 24 h, IC50 concentrations
From the text: FIGS. 4A-4C describe: FIG. 4A—Nuclear DNA fragmentation. […] Quantitative estimation of DNA fragmentation was obtained with an ELISA test. Data are the means of five independent experiments. Error bars indicate SD. […] FIG. 4C—Caspase activity. […] Data are the means of at least three independent experiments. Error bars indicate SD.
To gain more insights into the mode of action of newly synthesized Pt(IV) derivatives, compounds 1 and 6 were chosen for further experiments. In particular, their capacity to induce apoptosis against human breast MCF-7 cells treated with equitoxic concentrations (IC50 values) of these drugs was evaluated and compared. Nuclear DNA fragmentation and apoptosome complex formation are critical steps in the apoptotic process. […] Apoptotic cell death induction was confirmed through a Hoechst 33342 staining.

A2780 cells = experiment: MTT cytotoxicity assay, A2780; assay type: cell-based, human; conditions: for IC50: A2780, 72 h exposure, MTT, read-out: IC50 (median growth inhibitory concentration)
Protocol: as §1, §2, §3

A549 cells = experiment: MTT cytotoxicity assay, A549; assay type: cell-based, human; conditions: for IC50: A549, 72 h exposure, MTT, read-out: IC50 (median growth inhibitory concentration)
Protocol: as §7, §2, §8

[4] = tested on: Histone deacetylase (HDAC); experiment: Histone deacetylase assay (Fluor-de-Lys) in MCF-7 cells; assay type: cell-based, human; conditions: for IC50 for cellular inhibition of HDAC activity (in words): MCF-7, 24 h, increasing concentrations; for inhibition of HDAC activity: MCF-7, 24 h incubation with IC50 concentrations
Protocol: Histone deacetylase activity was determined using Fluor-de-Lys® HDAC fluorometric activity assay kit (Enzo Life Sciences International, Inc., Plymount Meeting, Pa., U.S.A.). […] Fluorescence was measured using a Fluoroskan Ascent FL (Labsystem, Finland) plate reader, with excitation at 360 nm and emission at 460 nm. For comparison purpose, the HDAC activity was also measured in nuclear extracts of MCF-7-treated cells by means of the same fluorometric activity assay kit. In this latter case, MCF-7 nuclear extracts were obtained as follow: cell pellets were re-suspended in lysis buffer [Tris.HCl (10 mM, pH 8.0), KCl (60 mM), EDTA (1.2 mM), DTT (1 mM), PMSF (0.05 mM), NP-40 (0.05%)] and kept on ice for 10 min. Subsequently, samples were centrifuged at 1000 g and re-suspended in the nuclear extraction buffer [Tris.HCl (20 mM, (pH 8.0), NaCl (420 mM), MgCl2 (0.7 mM), EDTA (0.25 mM), glycerol (25%)] for 30 min at 4° C., and then centrifuged at 15000 g for 15 min at 4° C.
The complexes described here were specifically designed to release either VPA of PhB inside the cells in the hope that they will inhibit HDAC activity paving the way for more efficient DNA platination. Thus, in addition to measuring the levels of DNA platination, we also measured the ability of these pro-drugs to inhibit HDAC activity in cells. […] For comparison purposes, the HDAC inhibitory effect determined by tested complexes was also assayed in isolated nuclei of MCF-7 treated cells (FIG. 3B).
The HDAC activity was determined by the Fluor de Lys® Fluorescent Cellular Activity Assay (Enzo Life Sciences).
Also, MCF-7 cells were incubated for 24 h with increasing concentrations of compounds I-VIII and their HDAC activity was determined. The IC50 values for the inhibition of HDAC activity in the cells are depicted in FIG. 3C.

[5] = octanol/water partition, shake-flask method; assay type: physicochemical
Protocol: To quantify the hydrophobicity of the platinum complexes, partition coefficients (log P) values for octanol/water partition were measured using the shake-flask method.

BxPC3 cells = experiment: MTT cytotoxicity assay, BxPC3; assay type: cell-based, human; conditions: for times more effective/potent than cisplatin: BxPC3; for IC50: BxPC3, 72 h exposure, MTT, read-out: IC50 (median growth inhibitory concentration)
[6] = read-out: average IC50 values for the nine cancer cell lines, mean over nine cell lines, 72 h MTT
[7] = daily dose 20 mg kg^-1 orally, day 7-14, LLC in C57BL mice

Compound	IC50 (nine cancer cell lines; [6]) [nM]	IC50 (A498 cells) [nM]	IC50 (HCT-15 cells) [nM]	IC50 (A2780cisR cells; A2780cisR) [nM]	IC50 (A375 cells) [nM]	IC50 (PC3 cells) [nM]	times more effective/potent than cisplatin (MCF-7 cells [2])	IC50 (MCF-7 cells [2]) [nM]	times higher induction of nucleosome formation compared with cisplatin (MCF-7 cells [3]) [fold]	IC50 (A2780 cells) [nM]	IC50 (A549 cells) [nM]	IC50 for cellular inhibition of HDAC activity (in words) [4]	inhibition of HDAC activity [4]	times more effective/potent than cisplatin (BxPC3 cells) [fold]	IC50 (BxPC3 cells) [nM]	also measured
[NH2][Pt]([NH2])([Cl])([Cl])([O]C(=O)CCCc1ccccc1)[O]C(=O)CCCc1ccccc1 [Compound VI, ctc-[Pt(NH3)2(C10H11O2)2Cl2]]	230	430 ± 20	310 ± 40	120	160 ± 20	410 ± 60	~100 fold	180 ± 30	2	140	170 ± 40	highest inhibitory effect	approximately 70%	~60	190 ± 10	average fold more potent than cisplatin (nine cancer cell lines; listed as Ctc-[Pt(NH3)2(PhB)2Cl2]): 50 fold; average fold more potent than cisplatin (nine cancer cell lines; listed as ctc-[Pt(NH3)2(PhB)2Cl2]): about 24 fold; fold improvement in potency on replacing both VPA ligands with PhB (VI vs I) (nine cancer cell lines; on the average): ~5 fold; fold more potent than the mono-PhB monoacetate complex (nine cancer cell lines; range over cell lines): 4.6-53 fold; IC50 (nine cancer cell lines; read-out: range of IC50 values over the cell lines, lowest-highest over nine cell lines): 120 to 430 nM; in vivo efficacy by oral administration (in words) ([1]; oral vs cisplatin ip): nearly as effective in this model as cisplatin; fold more potent than cisplatin (A549 cells; A549): ~50 fold; Log P [5]: −0.73 ± 0.05
CCCC(CCC)C(=O)[O][Pt]([Cl])([Cl])[O]C(=O)C(CCC)CCC.N.N [I, Ctc-Pt(NH3)2(C8H15O2)2Cl2]]	1150	2430 ± 720	810 ± 120	300 ± 100	1250 ± 250	2130 ± 450	about 19 fold	910 ± 300	1.5	250 ± 90	1120 ± 320	highest inhibitory effect	~65%	~10	1130 ± 140	fold more potent than the mono-VPA monoacetato analog (nine cancer cell lines; average of the nine cell lines): 4.6 fold; average fold more potent than cisplatin (nine cancer cell lines): 8 fold; times more effective than cisplatin (HCT-15 cells; HCT-15): ~14 fold; Average tumor weight (mean ± SD, g) [1, 7]: 0.179 ± 0.07 g; Inhibition of tumor growth (%) [1, 7]: 68.21%; fold more potent/effective than cisplatin (A2780cisR cells; A2780cisR): 46 fold; resistance factor (A2780cisR cells; ratio IC50 resistant (A2780cisR) / sensitive (A2780) cells): 1.2; fold more potent than cisplatin (A2780 cells; A2780): 11 fold
